“And” between values parts separate entries of the source, which are not always exact repeats. Equal entries are not always repeated. Where two headings read alike, the source gives them in different places.
How the values were obtained:
[1] = parameters: method as in PMID 17874082; details: cited from earlier work
[2] = Aqueous solubility of L-Hpa as a function of temperature and pH (isothermal equilibration, HPLC); type: physicochemical; details: for Solubility in water: pure water (at pI)
Description: HPLC analysis was performed via a Dionex UltiMate3000 system manufactured by Thermo Scientific, Waltham. Two different HPLC methods were employed to quantify the L-Hpa concentration. The first method relies on a 150 mm long Crownpak (CR+) column (Daicel Corporation, Osaka) with a diameter of 4 mm and a particle size of 5 μm. Measurement took place at 298 K with an eluent flow rate of 0.8 mL min^−1 and an injection volume of 1 μL. Detection was achieved by light absorbance at 200 nm. Aqueous solution of perchloric acid with a pH of 2 was used as eluent. This method was developed in our lab but a similar one was employed in the literature.[14] The second method is based on another work,[31] where a Chirobiotic T column (Astec) with a length of 250 mm, a diameter of 4.6 mm and a particle size of 5 μm was utilized. 0.5 mL per L acetic acid was added to 0.01 mol per L ammonium acetate solution, which was then mixed with methanol in the volumetric ratio of 30/70 to produce the eluent. Measurements were done with an eluent flow rate of 0.5 mL min^−1 by adding 10 μL of sample and detection of light absorbance at 210 nm. Calibration was obtained by dissolving known amounts of L-Hpa in eluent and correlating the measured light absorbance to the concentration by linear regression.
pH measurements were performed with an MP225 pH meter with an InLab Micro Pro probe manufactured by Mettler Toledo, USA. The system is calibrated in regular intervals and each day the accuracy was checked by measuring pH standards at room temperature. At 298 K the pH values were stable and used for the evaluation, while for 328 K either the stable value or the value after 60 s was accepted to reduce the influence of cooling (and potential nucleation).
Equilibrium experiments at isothermal conditions were performed in tempered double jacketed glass reactors at different temperatures. First, L-Hpa, was mixed with water and dissolved completely by heating the suspension. The samples of about 10 mL were then brought to the target temperature at which they were allowed to equilibrate for at least 48 h while being stirred continuously. […] For selected samples at both saturation temperatures (298 K and 328 K), a solid–liquid separation was conducted by vacuum filtration and the obtained solids were analysed by HPLC and PXRD.
Most experiments for determination of pH-dependent solubilities were performed in the Crystalline multi reactor system, manufactured by Technobis Crystallization Systems, The Netherlands. […] Shortly before complete dissolution was detected visually, the buffer addition was stopped. […] On the next day, stirring was stopped, liquid samples were withdrawn and the pH was recorded. […]

[3] = heating 2 K min^-1, helium
Description: TG was performed with a Sensys Evo twin type instrument manufactured by Setaram Instrumentation, France. Grinded samples of about 4 to 7 mg L-Hpa were weighed into open 100 μL aluminium crucibles and analysed with a linear temperature program under a helium (5.0) atmosphere. For the measurement, the following heating program was employed: starting at 298 K heating to 673 K with 2 K min^−1 and subsequent cooling to 298 K with 5 K min^−1. […] Temperature calibration of the instrument is performed regularly using the melting temperatures of highly pure indium, tin, zinc and lead at different heating rates.

Solubility in water ([2]; 298 K)	Solubility in water ([2]; 328 K)	Highest solubility observed ([2]; pH 1.07, 328 K, perchloric acid buffer)	Solubility increase at sufficiently low or high pH ([2]; pH 1.5 or 10.5)	TG mass loss ([3]; at about 520 K)	TG mass loss ([3]; up to about 560 K)	Compound	pKa(2) (NH3), experimental [1]	pKa(1) (COOH), experimental [1]
–	–	–	–	–	–	N[C@@H](Cc1ccccc1)C(=O)O [Phenylalanine]	9.17 ± 0.06	–
–	–	–	–	–	–	N[C@@H](Cc1c[nH]cn1)C(=O)O [histidine]	9.14 ± 0.08	1.64 ± 0.45
0.0075 mol%	0.0153 mol% and 0.015 mol%	0.278 mol%	increase almost twentyfold	ca. 10 wt%	95 wt%	N[C@@H](CCc1ccccc1)C(=O)O [L-Hpa, L-homophenylalanine]	–	–

Reference: publication PMC10985536, “Aqueous solution and solid-state behaviour of L-homophenylalanine: experiment, modelling, and DFT calculations” (RSC Advances, 2024)
